Test results: US20090311217A1, “3-SUBSTITUTED-1H-INDOLE COMPOUNDS, THEIR USE AS MTOR KINASE AND PI3 KINASE INHIBITORS, AND THEIR SYNTHESES” (priority 2008, published 2009)
pIC50: −log10 of the molar value. Like-named read-outs stand apart in the source and are kept apart here.

Tests used:
Type in all cases: biochemical
PI3K-gamma = PI3K-gamma (Homo sapiens, UniProt P48736); assay: PI3K-gamma fluorescence polarization assay
Procedure, shortened: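 Reactions used 5 ng enzyme with 2.5 μM diC8-PI(4,5)P2 and 25 μM ATP in 5 mM HEPES pH 7, 2.5 mM MgCl2, run 1 h at 25° C. After an EDTA quench (10 mM), 100 nM GST-GRP1 PH domain and 5 nM BODIPY-TMR-IP4 were added and fluorescence polarization was read.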

PI3K-alpha = PI3K-alpha (Homo sapiens, UniProt P42336); assay: PI3K-alpha fluorescence polarization assay; conditions: read-out: PI3Kα Avg. IC50
PI3K-alpha, sequence (P42336 whole entry, species assumed): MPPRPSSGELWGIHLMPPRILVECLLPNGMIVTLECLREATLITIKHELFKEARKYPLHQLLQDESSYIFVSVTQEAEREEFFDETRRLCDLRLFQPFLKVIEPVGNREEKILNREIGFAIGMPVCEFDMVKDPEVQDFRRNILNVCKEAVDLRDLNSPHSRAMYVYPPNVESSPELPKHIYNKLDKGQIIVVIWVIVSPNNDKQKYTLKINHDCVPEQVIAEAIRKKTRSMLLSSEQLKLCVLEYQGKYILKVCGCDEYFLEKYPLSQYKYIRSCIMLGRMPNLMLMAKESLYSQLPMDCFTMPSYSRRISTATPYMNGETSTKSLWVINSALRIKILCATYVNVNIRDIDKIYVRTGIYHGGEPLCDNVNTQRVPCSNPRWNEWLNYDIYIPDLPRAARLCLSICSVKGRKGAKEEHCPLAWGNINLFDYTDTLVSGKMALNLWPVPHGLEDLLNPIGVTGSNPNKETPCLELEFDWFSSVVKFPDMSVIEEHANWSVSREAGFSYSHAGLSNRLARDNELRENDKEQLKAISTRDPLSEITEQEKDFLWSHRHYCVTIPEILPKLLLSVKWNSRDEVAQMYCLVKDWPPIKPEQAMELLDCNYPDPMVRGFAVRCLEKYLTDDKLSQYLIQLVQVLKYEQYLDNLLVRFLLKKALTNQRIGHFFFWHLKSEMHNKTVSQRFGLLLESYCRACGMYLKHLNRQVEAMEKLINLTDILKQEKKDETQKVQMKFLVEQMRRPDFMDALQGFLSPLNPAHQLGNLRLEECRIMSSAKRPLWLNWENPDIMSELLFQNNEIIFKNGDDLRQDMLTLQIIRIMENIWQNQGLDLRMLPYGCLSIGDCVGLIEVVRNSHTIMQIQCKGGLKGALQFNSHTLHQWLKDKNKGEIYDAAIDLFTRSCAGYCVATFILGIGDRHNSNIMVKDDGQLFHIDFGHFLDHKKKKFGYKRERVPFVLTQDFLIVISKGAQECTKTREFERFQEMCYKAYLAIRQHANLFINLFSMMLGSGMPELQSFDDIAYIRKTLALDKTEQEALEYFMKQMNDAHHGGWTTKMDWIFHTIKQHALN
PI3K-alpha, sequence (P27986 whole entry partner, species assumed): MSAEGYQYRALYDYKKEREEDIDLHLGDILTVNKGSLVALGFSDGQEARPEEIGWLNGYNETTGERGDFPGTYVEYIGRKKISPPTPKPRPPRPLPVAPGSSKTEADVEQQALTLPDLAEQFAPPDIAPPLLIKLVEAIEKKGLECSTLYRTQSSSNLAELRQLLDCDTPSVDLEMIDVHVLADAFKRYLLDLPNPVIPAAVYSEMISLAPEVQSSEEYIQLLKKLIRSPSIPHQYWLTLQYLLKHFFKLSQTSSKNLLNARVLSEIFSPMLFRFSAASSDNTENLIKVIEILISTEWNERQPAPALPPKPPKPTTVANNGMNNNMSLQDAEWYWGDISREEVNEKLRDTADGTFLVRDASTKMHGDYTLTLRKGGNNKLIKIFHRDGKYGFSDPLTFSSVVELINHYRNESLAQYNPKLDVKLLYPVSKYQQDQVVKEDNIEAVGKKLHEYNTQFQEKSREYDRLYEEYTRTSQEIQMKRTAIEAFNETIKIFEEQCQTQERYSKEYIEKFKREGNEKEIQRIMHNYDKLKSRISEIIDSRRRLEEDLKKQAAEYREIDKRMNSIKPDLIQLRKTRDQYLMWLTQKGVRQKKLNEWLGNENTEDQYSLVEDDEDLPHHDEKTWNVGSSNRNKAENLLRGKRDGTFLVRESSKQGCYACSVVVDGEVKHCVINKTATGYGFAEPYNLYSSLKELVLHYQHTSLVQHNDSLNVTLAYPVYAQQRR

human TOR = target: T1, human TOR (Homo sapiens, UniProt P42345); assay: mTOR enzyme assay (DELFIA, His6-S6K substrate); conditions: read-out: mTOR Kinase Avg. IC50
T1 construct: FLAG

PI3K-gamma, sequence (P48736 whole entry, species assumed, the tested form may be a part): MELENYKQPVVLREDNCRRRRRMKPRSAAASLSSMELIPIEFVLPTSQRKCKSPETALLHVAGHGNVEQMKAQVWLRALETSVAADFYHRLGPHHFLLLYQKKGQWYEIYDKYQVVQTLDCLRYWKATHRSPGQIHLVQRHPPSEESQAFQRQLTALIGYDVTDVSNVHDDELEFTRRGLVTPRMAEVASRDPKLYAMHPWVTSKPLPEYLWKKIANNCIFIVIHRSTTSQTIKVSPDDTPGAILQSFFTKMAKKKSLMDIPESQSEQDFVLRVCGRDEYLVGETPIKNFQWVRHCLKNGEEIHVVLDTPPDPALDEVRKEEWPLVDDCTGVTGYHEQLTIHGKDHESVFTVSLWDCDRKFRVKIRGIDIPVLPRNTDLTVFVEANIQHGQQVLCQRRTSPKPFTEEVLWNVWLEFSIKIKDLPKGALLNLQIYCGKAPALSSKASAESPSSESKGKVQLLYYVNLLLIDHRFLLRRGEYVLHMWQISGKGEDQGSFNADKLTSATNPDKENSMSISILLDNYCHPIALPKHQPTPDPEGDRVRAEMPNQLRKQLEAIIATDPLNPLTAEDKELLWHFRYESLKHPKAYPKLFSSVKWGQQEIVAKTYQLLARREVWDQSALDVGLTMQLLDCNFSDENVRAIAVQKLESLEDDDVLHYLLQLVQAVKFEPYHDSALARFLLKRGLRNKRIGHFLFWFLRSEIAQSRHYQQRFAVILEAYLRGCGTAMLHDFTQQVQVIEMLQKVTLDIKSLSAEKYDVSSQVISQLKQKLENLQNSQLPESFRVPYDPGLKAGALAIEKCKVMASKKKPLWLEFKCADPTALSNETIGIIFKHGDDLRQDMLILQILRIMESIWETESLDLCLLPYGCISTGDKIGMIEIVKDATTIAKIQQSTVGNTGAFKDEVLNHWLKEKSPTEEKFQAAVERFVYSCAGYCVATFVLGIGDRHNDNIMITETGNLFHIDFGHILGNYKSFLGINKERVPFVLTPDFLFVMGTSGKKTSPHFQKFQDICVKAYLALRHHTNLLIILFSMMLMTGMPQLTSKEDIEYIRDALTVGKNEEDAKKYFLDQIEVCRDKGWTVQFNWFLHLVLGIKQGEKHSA

Compound | pIC50 (PI3K-gamma; PI3Kγ Avg. IC50) | pIC50 (PI3K-alpha) | pIC50 (human TOR) | pIC50 (PI3K-gamma; read-out: PI3Kγ Avg. IC50)
COc1ccc2c(c1)c(/C=C1\Oc3c(ccc(O)c3Cl)C1=O)c(C)n2CCN1CCN(C)CC1 [Example 451, (2Z)-7-Chloro-6-hydroxy-2-({5-methoxy-2-methyl-1-[2-(4-methylpiperazin-1-yl)ethyl]-1H-indol-3-yl}methylene)-1-benzofuran-3(2H)-one] | 5.11 | 6.43 | < 4.70 | –
N#CCCCn1cc(C=C2Oc3cc(O)cc(O)c3C2=O)c2c(O)cccc21 [Example 257, 4-{3-[(4,6-dihydroxy-3-oxo-1-benzofuran-2(3H)-ylidene)methyl]-4-hydroxy-1H-indol-1-yl}butanenitrile] | 5.65 | 6.75 | 4.92 | –
Cn1cc(/C=C2\Oc3cc(O)cc(O)c3C2=O)c2c(-c3cnn(CCN4CCOCC4)c3)cccc21 [Example 403, (2Z)-4,6-Dihydroxy-2-({1-methyl-4-[1-(2-morpholin-4-ylethyl)-1H-pyrazol-4-yl]-1H-indol-3-yl}methylene)-1-benzofuran-3(2H)-one] | 5.11 | 5.79 | 6.91 | –
Cn1cc(/C=C2\Oc3cc(O)cc(O)c3C2=O)c2c(-c3cccnc3)cccc21 [Example 375, (2Z)-4,6-Dihydroxy-2-[(1-methyl-4-pyridin-3-yl-1H-indol-3-yl)methylene]-1-benzofuran-3(2H)-one] | 5.02 | 5.55 | 7.55 | –
Cn1cc(/C=C2\Oc3cc(O)ccc3C2=O)c2c(-c3ccccc3)cccc21 [Example 443, (2Z)-6-Hydroxy-2-((1-methyl-4-phenyl-1H-indol-3-yl)methylene)benzofuran-3(2H)-one] | < 5.29 | < 5.29 | 5.91 | –
COc1ccc2c(c1)c(/C=C1\Oc3ccc(NC(=O)Nc4cccnc4)cc3C1=O)c(C)n2CCN1CCN(C)CC1 [Compound 617, 1-[(2Z)-2-({5-methoxy-2-methyl-1-[2-(4-methylpiperazin-1-yl)ethyl]-1H-indol-3-yl}methylidene)-3-oxo-2,3-dihydro-1-benzofuran-5-yl]-3-pyridin-3-ylurea] | 6.61 | 8.72 | 7.24 | –
COc1ccc2c(c1)c(/C=C1\Oc3cc(O)cc(O)c3C1=O)c(C(=O)N(C)C)n2CC(=O)N(C)C [Example 325, 3-[(Z)-(4,6-Dihydroxy-3-oxo-1-benzofuran-2(3H)-ylidene)methyl]-1-[2-(dimethylamino)-2-oxoethyl]-5-methoxy-N,N-dimethyl-1H-indole-2-carboxamide] | 6.53 | 6.55 | 7.08 | –
Cn1c(-c2ccsc2)c(C=C2Oc3cc(O)cc(O)c3C2=O)c2ccccc21 [Example 194, 4,6-dihydroxy-2-{[1-methyl-2-(3-thienyl)-1H-indol-3-yl]methylene}-1-benzofuran-3(2H)-one] | 5.48 | 6.08 | 6.64 | –
COc1ccc2c(c1)c(/C=C1\Oc3ccc(NC(=O)Nc4cccnc4)cc3C1=O)c(C)n2CCN1CCN(C)CC1 [Compound 632, 1-[(2Z)-2-({5-methoxy-2-methyl-1-[2-(4-methylpiperazin-1-yl)ethyl]-1H-indol-3-yl}methylidene)-3-oxo-2,3-dihydro-1-benzofuran-5-yl]-3-pyridin-3-ylurea] | – | 8.72 | 7.31 | 6.61
COc1ccc2[nH]c(-c3c(C)nn(C)c3C)c(/C=C3\Oc4ccc(NC(=O)Nc5cccnc5)cc4C3=O)c2c1 [Compound 635, 1-[(2Z)-2-{[5-methoxy-2-(1,3,5-trimethyl-1H-pyrazol-4-yl)-1H-indol-3-yl]methylene}-3-oxo-2,3-dihydro-1-benzofuran-5-yl]-3-pyridin-3-ylurea] | 8.60 | 9.30 | 8.30 | –
Cn1cc(/C=C2\Oc3cc(O)cc(O)c3C2=O)c2c(-c3ccc(N)nc3)cccc21 [Example 380, (2Z)-2-{[4-(6-Aminopyridin-3-yl)-1-methyl-1H-indol-3-yl]methylene}-4,6-dihydroxy-1-benzofuran-3(2H)-one] | 5.49 | 6.37 | 7.05 | –
COc1ccc2c(c1)c(/C=C1\Oc3cc(O)cc(O)c3C1=O)c(C1CC1)n2CCO [Example 313, (2Z)-2-{[2-Cyclopropyl-1-(2-hydroxyethyl)-5-methoxy-1H-indol-3-yl]methylene}-4,6-dihydroxy-1-benzofuran-3(2H)-one] | 7.78 | 8.52 | 9.28 | –
CNC(=O)Nc1ccc2c(c1)C(=O)/C(=C/c1c(-c3c(C)nn(C)c3C)n(CCN3CCN(C)CC3)c3ccc(OC)cc13)O2 [Compound 646, 1-[(2Z)-2-({5-methoxy-1-[2-(4-methylpiperazin-1-yl)ethyl]-2-(1,3,5-trimethyl-1H-pyrazol-4-yl)-1H-indol-3-yl}methylene)-3-oxo-2,3-dihydro-1-benzofuran-5-yl]-3-methylurea] | 7.17 | 8.60 | 7.89 | –
COc1ccc2[nH]c(-c3c(C)nn(C)c3C)c(/C=C3\Oc4ccc(NC(=O)Nc5ccc(C(=O)N6CCN(C)CC6)cc5)cc4C3=O)c2c1 [Compound 689, 1-[(2Z)-2-{[5-methoxy-2-(1,3,5-trimethyl-1H-pyrazol-4-yl)-1H-indol-3-yl]methylidene}-3-oxo-2,3-dihydro-1-benzofuran-5-yl]-3-{4-[(4-methylpiperazin-1-yl)carbonyl]phenyl}urea] | 8.60 | 9.70 | 8.40 | –
CNC(=O)Nc1ccc2c(c1)C(=O)/C(=C/c1c(C#N)n(CCN3CCN(C)CC3)c3ccc(OC)cc13)O2 [Compound 628, 1-[(2Z)-2-({2-cyano-5-methoxy-1-[2-(4-methylpiperazin-1-yl)ethyl]-1H-indol-3-yl}methylidene)-3-oxo-2,3-dihydro-1-benzofuran-5-yl]-3-methylurea] | 5.56 | 7.96 | 6.82 | –
CN1CCN(CCn2cc(/C=C3\Oc4cc(O)cc(O)c4C3=O)c3c(-c4ccc(N(C)C)cc4)cccc32)CC1 [Example 438, (2Z)-2-({4-[4-(Dimethylamino)phenyl]-1-[2-(4-methylpiperazin-1-yl)ethyl]-1H-indol-3-yl}methylene)-4,6-dihydroxy-1-benzofuran-3(2H)-one] | 5.05 | 5.53 | < 4.70 | –
CCn1c(C)c(/C=C2\Oc3ccc(NC(=O)Nc4ccc(C(=O)NCCNC)cc4)cc3C2=O)c2cc(OC)ccc21 [Compound 659, 4-[({(2Z)-2-[(1-ethyl-5-methoxy-2-methyl-1H-indol-3-yl)methylene]-3-oxo-2,3-dihydro-1-benzofuran-5-yl}carbamoyl)amino]-N-[2-(methylamino)ethyl]benzamide] | 8.66 | 9.52 | 7.82 | –
CNC(=O)Nc1ccc2c(c1)C(=O)/C(=C/c1c(-c3c(C)nn(C)c3C)n(CCNCCO)c3ccc(OC)cc13)O2 [Compound 648, 1-[(2Z)-2-{[1-{2-[(2-hydroxyethyl)amino]ethyl}-5-methoxy-2-(1,3,5-trimethyl-1H-pyrazol-4-yl)-1H-indol-3-yl]methylene}-3-oxo-2,3-dihydro-1-benzofuran-5-yl]-3-methylurea] | 7.43 | 8.53 | 8.05 | –
COc1ccc2c(c1)c(/C=C1\Oc3c(ccc(O)c3C)C1=O)c(C)n2CCN1CCN(C)CC1 [Example 347, (2Z)-6-Hydroxy-2-({5-methoxy-2-methyl-1-[2-(4-methylpiperazin-1-yl)ethyl]-1H-indol-3-yl}methylene)-7-methyl-1-benzofuran-3(2H)-one] | 5.06 | 6.39 | < 5.40 | –
CCn1cc(/C=C2\Oc3ccc(NC(=O)Nc4ccc(C(=O)N(C)CCN(C)C)cc4)cc3C2=O)c2cc(OC)ccc21 [Compound 655, N-[2-(dimethylamino)ethyl]-4-[({(2Z)-2-[(1-ethyl-5-methoxy-1H-indol-3-yl)methylene]-3-oxo-2,3-dihydro-1-benzofuran-5-yl}carbamoyl)amino]-N-methylbenzamide] | 8.12 | 9.22 | 6.76 | –
Cn1cc(/C=C2\Oc3cc(O)cc(O)c3C2=O)c2c(-c3ccc(N)cc3)cccc21 [Example 370, (2Z)-2-{[4-(4-Aminophenyl)-1-methyl-1H-indol-3-yl]methylene}-4,6-dihydroxy-1-benzofuran-3(2H)-one] | 5.52 | 5.97 | 7.85 | –
Cn1cc(/C=C2\Oc3cc(O)cc(O)c3C2=O)c2c(-c3ccoc3)cccc21 [Example 378, (2Z)-2-{[4-(3-Furyl)-1-methyl-1H-indol-3-yl]methylene}-4,6-dihydroxy-1-benzofuran-3(2H)-one] | 5.47 | 6.01 | 6.97 | –
COc1cc(F)c2[nH]c(-c3c(C)nn(C)c3C)c(/C=C3\Oc4ccc(NC(=O)Nc5ccc(C(=O)N6CCC(N(C)C)CC6)cc5)cc4C3=O)c2c1 [Compound 729, 1-(4-{[4-(dimethylamino)piperidin-1-yl]carbonyl}phenyl)-3-[(2Z)-2-{[7-fluoro-5-methoxy-2-(1,3,5-trimethyl-1H-pyrazol-4-yl)-1H-indol-3-yl]methylidene}-3-oxo-2,3-dihydro-1-benzofuran-5-yl]urea] | 8.54 | 9.46 | 9.00 | –
CNC(=O)Nc1ccc2c(c1)C(=O)/C(=C/c1c(-c3c(C)nn(C)c3C)n(CCCC#N)c3ccc(OC)cc13)O2 [Compound 634, 1-[(2Z)-2-{[1-(3-cyanopropyl)-5-methoxy-2-(1,3,5-trimethyl-1H-pyrazol-4-yl)-1H-indol-3-yl]methylene}-3-oxo-2,3-dihydro-1-benzofuran-5-yl]-3-methylurea] | 7.78 | 8.68 | 7.72 | –
